# Literature values as cited in patent US3995028A, “Antibiotic OS-3256-B” (The Kitasato Institute, priority 1975, dated 1976).
# Test system: animal tumors such as leukemia L-1210, Sarcoma-180 and Hela cells
smiles,measurement,value
"C[C@H](N)C(=O)N[C@@H](CCC(=O)C=[N+]=[N-])C(=O)N[C@@H](CCC(=O)C=[N+]=[N-])C(=O)O [Alazopeptin, L-alanyl-(6-diazo-5-oxo)-L-norleucyl-(6-diazo-5-oxo)-L-norleucine]",inhibitory activity against animal tumors,inhibitory activity against animal tumors
